Positions count from the first letter of the chain named. Bounds are passed on as bounds.

Broadly, the IC50 is the concentration at which inhibition is half-maximal. A word on the EC50: it is the concentration that produces a half-maximal response.

One test deals with GlyR α1^T113G (Homo sapiens, UniProt P23415, T141G). Briefly: Whole-cell recording of substituted GlyR in HEK cells. The class given is cell-based. The settings on record: α1^T113G vs WT.
A further test deals with T1, GlyR α1^L118A (Homo sapiens, UniProt P23415, L146A).
T1 sequence (P23415 29-457 L146A): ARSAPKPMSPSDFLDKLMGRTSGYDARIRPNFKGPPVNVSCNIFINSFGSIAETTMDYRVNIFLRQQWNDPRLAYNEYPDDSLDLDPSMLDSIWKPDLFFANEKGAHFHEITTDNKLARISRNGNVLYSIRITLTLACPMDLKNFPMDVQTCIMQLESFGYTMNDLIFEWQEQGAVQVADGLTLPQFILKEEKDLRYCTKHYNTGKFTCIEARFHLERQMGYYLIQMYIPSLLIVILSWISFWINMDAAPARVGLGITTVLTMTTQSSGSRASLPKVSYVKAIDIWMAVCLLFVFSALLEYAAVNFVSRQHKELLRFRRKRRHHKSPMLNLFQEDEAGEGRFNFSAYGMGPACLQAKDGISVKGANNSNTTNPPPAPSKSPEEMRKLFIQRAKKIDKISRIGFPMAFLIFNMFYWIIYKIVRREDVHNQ
The test is described as above. The format is cell-based.

The target in a further test is T2, GlyR α1^I111A (Homo sapiens, UniProt P23415, I139A).
T2 sequence (P23415 29-457 I139A): T1 sequence (P23415 29-457 L146A) with I111A, A118L
The test is described as above. The class given is cell-based.

The target in a further test is T3, GlyR α1^F99A,E157A (Homo sapiens, UniProt P23415, E185A/F127A).
T3 sequence (P23415 29-457 F127A/E185A): T1 sequence (P23415 29-457 L146A) with F99A, A118L, E157A
The description is as above. The format is cell-based.

The next test concerns the target GlyR α1^D114G (Homo sapiens, UniProt P23415, D142G). The test is described as above. The format is cell-based. The settings on record: α1^D114G vs WT.
The next test deals with GlyR α1 F99L (Homo sapiens, UniProt P23415, F127L). Described as above. The settings on record: same cell. The class given is cell-based.
Chain of GlyR α1 F99L (P23415 29-457 F127L): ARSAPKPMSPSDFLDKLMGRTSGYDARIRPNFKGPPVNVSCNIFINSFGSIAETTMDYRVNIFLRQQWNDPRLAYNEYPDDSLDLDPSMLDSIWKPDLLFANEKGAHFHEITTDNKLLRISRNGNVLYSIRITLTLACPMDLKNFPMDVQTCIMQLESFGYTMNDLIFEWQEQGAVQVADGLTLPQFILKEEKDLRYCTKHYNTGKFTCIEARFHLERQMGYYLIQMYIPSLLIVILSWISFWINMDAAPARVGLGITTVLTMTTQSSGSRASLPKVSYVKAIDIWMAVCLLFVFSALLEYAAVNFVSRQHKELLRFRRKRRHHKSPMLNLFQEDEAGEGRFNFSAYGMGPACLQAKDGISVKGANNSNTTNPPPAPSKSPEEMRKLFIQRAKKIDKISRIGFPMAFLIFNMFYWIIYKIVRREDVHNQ
The next test has as its target GlyR α1^T112A (Homo sapiens, UniProt P23415, T140A). The class given is cell-based.
The target in a further test is GlyR α1^L134A, D86A (Homo sapiens, UniProt P23415, D114A/L162A). Briefly: Whole-cell recording of substituted GlyR in HEK cells. The class given is cell-based.
Chain of GlyR α1^L134A, D86A (P23415 29-457 D114A/L162A): as the sequence (P23415 29-457 F127L) above, with D86A, L99F, L134A counted along it
The next test addresses GlyR α1^F100Y (Homo sapiens, UniProt P23415, F128Y). The description is as above. Conditions: same cell. The class given is cell-based.
The target in a further test is GlyR α1^L134A, D84A (Homo sapiens, UniProt P23415, D112A/L162A). The test is described as above. The format is cell-based.
Chain of GlyR α1^L134A, D84A (P23415 29-457 D112A/L162A): as the sequence (P23415 29-457 F127L) above, with D84A, L99F, L134A counted along it
The next test addresses GlyR α1^L134A, D97A (Homo sapiens, UniProt P23415, D125A/L162A). Described as above. The format is cell-based.
In test [1] the test system is Zn^2+-activated GlyRs (ZAGs). The class given is cell-based, human. The settings on record: substituted GlyRs, n = 5; close to ECl.
The target of the next test is GlyR α1 F108Y (Homo sapiens, UniProt P23415, F136Y). Description: Whole-cell recording of substituted GlyR in HEK cells. The class given is cell-based. The settings on record: same cell.
Chain of GlyR α1 F108Y (P23415 29-457 F136Y): as the sequence (P23415 29-457 F127L) above, with L99F, F108Y counted along it
The mark [2] stands for this setting: read-out: Zn^2+ Inhibition IC50, modulation of EC50 glycine currents.

Chain of GlyR α1^T112A (P23415 29-457 T140A): as the sequence (P23415 29-457 F127L) above, with L99F, T112A counted along it
Chain of GlyR α1^D114G (P23415 29-457 D142G): as the sequence (P23415 29-457 F127L) above, with L99F, D114G counted along it
Chain of GlyR α1^T113G (P23415 29-457 T141G): as the sequence (P23415 29-457 F127L) above, with L99F, T113G counted along it
Chain of GlyR α1^F100Y (P23415 29-457 F128Y): as the sequence (P23415 29-457 F127L) above, with L99F, F100Y counted along it
Chain of GlyR α1^L134A, D97A (P23415 29-457 D125A/L162A): as the sequence (P23415 29-457 F127L) above, with D97A, L99F, L134A counted along it

Consider `NCC(=O)O` [Glycine, glycine], for which the “Increase in glycine sensitivity compared to WT” value on GlyR α1^T113G and on GlyR α1^D114G was 3 fold in each case. For the same compound, the “Glycine Imax” value at GlyR α1^L118A was found to be 6.3 ± 0.7 nA; at GlyR α1^I111A, 4.6 ± 0.8 nA. In addition, the “Glycine nH” value at GlyR α1^L118A (Hill slope) was 3.00 ± 0.2; on GlyR α1^I111A (Hill slope), 1.3 ± 0.2. The Activation by glycine result at GlyR α1^F99A,E157A (α1^F99A,E157A, up to 10 mM glycine) is “insensitive”.
`[Zn+2]` [Zn^2+]: the “Maximal Zn^2+ (1 mM)-activated current normalised to glycine Imax (10 mM)” value at GlyR α1 F99L, at GlyR α1^F100Y and on GlyR α1 F108Y was < 2 % Gly Imax each time. Besides, the “Zn^2+ activation” value on GlyR α1^T112A was “highly-sensitive and efficacious ZAG”; on GlyR α1^L134A, D97A, “no detectable activation”. The “Zn^2+ Activation EC50” value at GlyR α1^L118A (direct activation without glycine) was “None”. Further, the IC50 at GlyR α1^L118A (setting [2]) was 10.3 ± 0.36 µM; on GlyR α1^I111A (setting [2]), > 1000 µM. The “Zn^2+ activation (normalised to Gly Imax)” value at GlyR α1^L134A, D86A (D86A) came to 2.4 ± 1.2%; on GlyR α1^L134A, D84A (D84A), 5 ± 1%. Also, the “Increase of Zn^2+ activation EC50 relative to α1^L134A” value is given as 15 fold at GlyR α1^L134A, D86A (D86A vs α1^L134A) and 120 fold at GlyR α1^L134A, D84A (D84A vs α1^L134A). At GlyR α1^I111A (Hill slope), the “Zn^2+ Activation nH” value is recorded as 0.7 ± 0.2. Moreover, on GlyR α1^I111A (maximal Zn^2+ response as percentage of maximal glycine response in same cell), the “Zn^2+ Activation Relative efficacy (% Gly Imax)” value was determined as 83 ± 3 % Gly Imax. For the same compound, the EC50 at GlyR α1^I111A (read-out: Zn^2+ Activation EC50, direct activation without glycine) amounted to 470 ± 130 µM. The “Reversal potential of Zn^2+-activated currents” value in test [1] worked out at 0.4 ± 1.4 mV. On GlyR α1^F99A,E157A (E157A on α1^F99A background vs α1^F99A), the “Decrease in sensitivity to Zn^2+ activation” value is 3 fold. Besides, the “Zn^2+ sensitivity compared with α1^F99A” value at GlyR α1^F99A,E157A (α1^F99A,E157A, Zn^2+ activation) was “identical”.
